Experimental data reported in patent publication US20260262643A1, “HERBICIDAL BENZOXAZINES” (FMC CORPORATION, priority 2022, published 2026).

What was measured:
[1] = tested on: ryegrass, Italian; test: Test C preemergence; assay type: in vivo, Lolium multiflorum; conditions: preemergence, 0 to 100 scale (0 no effect, 100 complete control)
Method in brief: (§1)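 Visual injury score, 0–100 (100 = complete control), taken 10 days after treatment relative to untreated controls. Pre: directed spray onto soil over sown seeds. Post: foliar spray at one- to two-leaf stage, 2–10 cm. Solvent/surfactant formulation; loam–sand soil; greenhouse.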

[2] = tested on: kochia; test: Test C postemergence; assay type: in vivo, Bassia scoparia; conditions: 10 days, 0 to 100 scale (0 no effect, 100 complete control)
Method in brief: as §1

[3] = tested on: blackgrass; test: Test C postemergence; assay type: in vivo, Alopecurus myosuroides; conditions: 10 days, 0 to 100 scale (0 no effect, 100 complete control)
Method in brief: as §1

[4] = tested on: rice; test: Test D flooded paddy test; assay type: in vivo, Oryza sativa; conditions: 250 g ai/ha, applied to paddy water, visual rating after 13 to 14 days, scale 0 to 100 (0 no effect, 100 complete control)
Method in brief: (§2)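 At the 2-leaf stage, floodwater 3 cm deep received the test compound; that depth persisted throughout. Plants scored visually 13 to 14 days on, 0 (no effect) to 100 (complete control), dash indicating no result.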

[5] = tested on: wheat; test: Test C postemergence; assay type: in vivo, Triticum aestivum; conditions: 10 days, 0 to 100 scale (0 no effect, 100 complete control)
Method in brief: as §1

[6] = tested on: corn; test: Test C postemergence; assay type: in vivo, Zea mays; conditions: 10 days, 0 to 100 scale (0 no effect, 100 complete control)
Method in brief: as §1

[7] = tested on: sedge, umbrella; test: Test D flooded paddy test; assay type: in vivo, Cyperus difformis; conditions: 250 g ai/ha, applied to paddy water, visual rating after 13 to 14 days, scale 0 to 100 (0 no effect, 100 complete control)
Method in brief: as §2

[8] = tested on: pigweed, palmer; test: Test C preemergence; assay type: in vivo, Amaranthus palmeri; conditions: preemergence, 0 to 100 scale (0 no effect, 100 complete control)
Method in brief: as §1

[9] = tested on: barnyardgrass; test: Test D flooded paddy test; assay type: in vivo, Echinochloa crus-galli; conditions: 250 g ai/ha, applied to paddy water, visual rating after 13 to 14 days, scale 0 to 100 (0 no effect, 100 complete control)
Method in brief: as §2

[10] = tested on: corn; test: Test C preemergence; assay type: in vivo, Zea mays; conditions: preemergence, 0 to 100 scale (0 no effect, 100 complete control)
Method in brief: as §1

[11] = tested on: oat, wild; test: Test C postemergence; assay type: in vivo, Avena fatua; conditions: 10 days, 0 to 100 scale (0 no effect, 100 complete control)
Method in brief: as §1

[12] = tested on: ragweed; test: Test C postemergence; assay type: in vivo, Ambrosia artemisiifolia; conditions: 10 days, 0 to 100 scale (0 no effect, 100 complete control)
Method in brief: as §1

[13] = tested on: ryegrass, Italian; test: Test C postemergence; assay type: in vivo, Lolium multiflorum; conditions: 10 days, 0 to 100 scale (0 no effect, 100 complete control)
Method in brief: as §1

[14] = tested on: kochia; test: Test C preemergence; assay type: in vivo, Bassia scoparia; conditions: preemergence, 0 to 100 scale (0 no effect, 100 complete control)
Method in brief: as §1

[15] = tested on: soybean; test: Test C preemergence; assay type: in vivo, Glycine max; conditions: preemergence, 0 to 100 scale (0 no effect, 100 complete control)
Method in brief: as §1

[16] = tested on: green foxtail; test: Test C preemergence; assay type: in vivo, Setaria viridis; conditions: preemergence, 0 to 100 scale (0 no effect, 100 complete control)
Method in brief: as §1

[17] = tested on: ragweed; test: Test C preemergence; assay type: in vivo, Ambrosia artemisiifolia; conditions: preemergence, 0 to 100 scale (0 no effect, 100 complete control)
Method in brief: as §1

[18] = tested on: ducksalad; test: Test D flooded paddy test; assay type: in vivo, Heteranthera limosa; conditions: 250 g ai/ha, applied to paddy water, visual rating after 13 to 14 days, scale 0 to 100 (0 no effect, 100 complete control)
Method in brief: as §2

[19] = tested on: soybean; test: Test C postemergence; assay type: in vivo, Glycine max; conditions: 10 days, 0 to 100 scale (0 no effect, 100 complete control)
Method in brief: as §1

[20] = tested on: galium; test: Test C postemergence; assay type: in vivo, Galium aparine; conditions: 10 days, 0 to 100 scale (0 no effect, 100 complete control)
Method in brief: as §1

[21] = tested on: oat, wild; test: Test C preemergence; assay type: in vivo, Avena fatua; conditions: preemergence, 0 to 100 scale (0 no effect, 100 complete control)
Method in brief: as §1

[22] = tested on: barnyardgrass; test: Test C postemergence; assay type: in vivo, Echinochloa crusgalli; conditions: 10 days, 0 to 100 scale (0 no effect, 100 complete control)
Method in brief: as §1

[23] = tested on: wheat; test: Test C preemergence; assay type: in vivo, Triticum aestivum; conditions: preemergence, 0 to 100 scale (0 no effect, 100 complete control)
Method in brief: as §1

[24] = tested on: horseweed; test: Test C postemergence; assay type: in vivo, Erigeron canadensis; conditions: 10 days, 0 to 100 scale (0 no effect, 100 complete control)
Method in brief: as §1

[25] = tested on: blackgrass; test: Test C preemergence; assay type: in vivo, Alopecurus myosuroides; conditions: preemergence, 0 to 100 scale (0 no effect, 100 complete control)
Method in brief: as §1

[26] = tested on: green foxtail; test: Test C postemergence; assay type: in vivo, Setaria viridis; conditions: 10 days, 0 to 100 scale (0 no effect, 100 complete control)
Method in brief: as §1

[27] = tested on: pigweed, palmer; test: Test C postemergence; assay type: in vivo, Amaranthus palmeri; conditions: 10 days, 0 to 100 scale (0 no effect, 100 complete control)
Method in brief: as §1

[28] = tested on: barnyardgrass; test: Test C preemergence; assay type: in vivo, Echinochloa crusgalli; conditions: preemergence, 0 to 100 scale (0 no effect, 100 complete control)
Method in brief: as §1

COc1ncn(-c2cccc(C(=O)N3C[C@H](C)Oc4c(Cl)cccc43)c2)n1 [Compound 310]
10: Plant response rating, Wheat ([5]; Postemergence, 125 g ai/ha) | Plant response rating, Corn ([6]; Postemergence, 125 g ai/ha) | Plant response rating, Barnyardgrass (Flood) [9] | Blackgrass plant response rating ([25]; Test C, 125 g ai/ha)
100: Pigweed, Palmer plant response rating ([8]; 500 g ai/ha) | Foxtail, Green plant response rating ([16]; 500 g ai/ha) | Foxtail, Green plant response rating ([16]; Test C, 125 g ai/ha) | Plant response rating, Soybean ([19]; 500 g ai/ha, postemergence)
0: Plant response rating, Rice (Flood) [4] | Corn plant response rating ([10]; 500 g ai/ha) | Corn plant response rating ([10]; Test C, 125 g ai/ha) | Plant response rating, Oat, Wild ([11]; Postemergence, 125 g ai/ha) | Soybean plant response rating ([15]; 500 g ai/ha) | Ragweed plant response rating ([17]; 500 g ai/ha) | Ragweed plant response rating ([17]; Test C, 125 g ai/ha) | Oat, Wild plant response rating ([21]; Test C, 125 g ai/ha) | Wheat plant response rating ([23]; 500 g ai/ha) | Wheat plant response rating ([23]; Test C, 125 g ai/ha) | Plant response rating, Horseweed ([24]; Postemergence, 125 g ai/ha)
80: Ryegrass, Italian plant response rating ([1]; 500 g ai/ha) | Plant response rating, Sedge, Umbrella (Flood) [7] | Pigweed, Palmer plant response rating ([8]; Test C, 125 g ai/ha) | Plant response rating, Ryegrass, Italian ([13]; 500 g ai/ha, postemergence) | Kochia plant response rating ([14]; 500 g ai/ha) | Plant response rating, Barnyardgrass ([22]; 500 g ai/ha, postemergence) | Barnyardgrass plant response rating ([28]; 500 g ai/ha)
90: Plant response rating, Kochia ([2]; 500 g ai/ha, postemergence) | Plant response rating, Blackgrass ([3]; 500 g ai/ha, postemergence) | Plant response rating, Soybean ([19]; Postemergence, 125 g ai/ha) | Plant response rating, Galium ([20]; 500 g ai/ha, postemergence) | Plant response rating, Galium ([20]; Postemergence, 125 g ai/ha) | Plant response rating, Pigweed, Palmer ([27]; 500 g ai/ha, postemergence)
70: Plant response rating, Kochia ([2]; Postemergence, 125 g ai/ha) | Plant response rating, Pigweed, Palmer ([27]; Postemergence, 125 g ai/ha)
50: Plant response rating, Blackgrass ([3]; Postemergence, 125 g ai/ha) | Plant response rating, Wheat ([5]; 500 g ai/ha, postemergence) | Plant response rating, Ragweed ([12]; 500 g ai/ha, postemergence) | Kochia plant response rating ([14]; Test C, 125 g ai/ha) | Blackgrass plant response rating ([25]; 500 g ai/ha) | Plant response rating, Foxtail, Green ([26]; 500 g ai/ha, postemergence) | Plant response rating, Foxtail, Green ([26]; Postemergence, 125 g ai/ha)
30: Ryegrass, Italian plant response rating ([1]; Test C, 125 g ai/ha) | Plant response rating, Ragweed ([12]; Postemergence, 125 g ai/ha) | Plant response rating, Ryegrass, Italian ([13]; Postemergence, 125 g ai/ha) | Plant response rating, Horseweed ([24]; 500 g ai/ha, postemergence)
40: Plant response rating, Oat, Wild ([11]; 500 g ai/ha, postemergence) | Soybean plant response rating ([15]; Test C, 125 g ai/ha)
60: Plant response rating, Corn ([6]; 500 g ai/ha, postemergence) | Oat, Wild plant response rating ([21]; 500 g ai/ha)
75: Plant response rating, Ducksalad (Flood) [18]
20: Plant response rating, Barnyardgrass ([22]; Postemergence, 125 g ai/ha) | Barnyardgrass plant response rating ([28]; Test C, 125 g ai/ha)
